Source: patent US4368203A, “Antibiotics and derivatives thereof having β-lactamase inhibitory activity and production thereof” (priority 1977, dated 1983)
Values after ≈ are worked out from the molar mass of the structure shown. Read-outs that look alike come from different tables or passages of the source.

How the values were obtained:
[1] = tested on: Klebsiella pneumoniae K-2; test: MIC, broth dilution method; settings: for MIC: Klebsiella pneumoniae, K2, 20 h, read-out: Minimum inhibitory concentration
[2] = tested on: Enterobacter cloacae E-16; test: MIC, broth dilution method; type: cell-based; settings: for MIC: Enterobacter cloacae, read-out: Minimum inhibitory concentration
Description: Sodium salt of the antibiotic PS-7 was dissolved and diluted with the BRAIN HEART INFUSION BROTH "Eiken" at a concentration between 5 μg/ml and 100 μg/ml. The solution was further diluted with the same medium to obtain a series of geometric concentrations. To the serial dilutions were added the seed cultures prepared by shaking culture of various test microorganisms shown in Tab. 5 in the BRAIN HEART INFUSION GROTH at 28° C. for 18 hours, the final cell count being about 1×10^5 /ml. […] The lowest concentration at which no cell growth was observed was the minimum inhibitory concentration of the antibiotic PS-7 on the test microorganism. […] The minimum inhibitory concentrations on test strains were determined in the same manner as mentioned above.

Proteus vulgaris P-5 [3] = test: MIC, broth dilution method; settings: for MIC: Proteus vulgaris, P5, 20 h, read-out: Minimum inhibitory concentration
Proteus vulgaris P-5 [4] = test: Potentiating and synergistic effect, pulp disc inhibition zone on agar plate; type: cell-based
Description: (§1) 10 ml of 2.5 folds diluted nutrient agar (pH 7.0) containing 50 μg/ml of penicillin G or cephaloridine was seeded with the β-lactamase producing and β-lactam-resistant microorganisms and poured in a 9 cm Petri dish to provide the bio-assay agar plate. […] A control assay plate was similarly prepared without penicillin G or cephaloridine. As reference antibiotics, 10,000 μg/ml of penicillin G or 20 μl of cephaloridine were disc-assayed under the same conditions.
(§2) Cepholoridine was added to a 2.5-times diluted nutrient agar, pH 7.0 and the medium was inoculated with a β-lactam-producing strain that produceds β-lactamase. Ten ml of the medium was spread and solidified in a petri dish of 9 cm in diameter to prepare an assay plate. […] Each 20 μl of the solution and its 2- and 4-times diluted solutions was soaked in a pulp disc of 8 mm in diameter. To the surface of the above nutrient agar was placed the pulp disc and the size of the growth inhibitory zone around the disc was examined after incubation at 35° C. for 18 hours. […] In addition, for the comparison, a similar experiment was also performed with a pulp disk soaked with 20 μl of 10,000 μg/ml Penicillin G or Cepholoridine solution in place of the antibiotic PS-7.

[5] = tested on: Staphylococcus aureus FDA 209P; test: MIC, broth dilution method; type: cell-based; settings: for MIC: Staphylococcus aureus, FDA209P, Table 7, no unit in the head, read-out: Minimum inhibitory concentration
[6] = tested on: Streptococcus pyogenes NY-5; test: MIC, broth dilution method; settings: for MIC: Streptococcus pyogenes, NY5, 20 h, read-out: Minimum inhibitory concentration
[7] = tested on: β-lactamase-producing, β-lactam-resistant bacteria; test: Increase of the antibiotic activity of other antibiotics (summary in words); type: cell-based; settings: β-lactamase-producing bacteria such as Proteus vulgaris, Serratia marcescens
Description: as §1, §2

[8] = tested on: Diplococcus pneumoniae Type III; test: MIC, broth dilution method; type: cell-based
[9] = tested on: Staphylococcus aureus FDA 209P; test: MIC, broth dilution method; type: cell-based; settings: FDA209P, read-out: Minimum inhibitory concentration
Description: (§3) Sodium salt of the antibiotic PS-7 was dissolved and diluted with the BRAIN HEART INFUSION BROTH "Eiken" at a concentration between 5 μg/ml and 100 μg/ml. The solution was further diluted with the same medium to obtain a series of geometric concentrations. To the serial dilutions were added the seed cultures prepared by shaking culture of various test microorganisms shown in Tab. 5 in the BRAIN HEART INFUSION GROTH at 28° C. for 18 hours, the final cell count being about 1×10^5 /ml. […] The lowest concentration at which no cell growth was observed was the minimum inhibitory concentration of the antibiotic PS-7 on the test microorganism. […] . The minimum inhibitory concentrations on test strains were determined in the same manner as mentioned above. […] For the comparison, the results on the known antibiotics Cephazolin and Cefoxitin are also given in the same table.

[10] = tested on: Alcaligenes faecalis B-326; test: MIC, broth dilution method; type: cell-based; settings: for MIC: Alcaligenes faecalis, read-out: Minimum inhibitory concentration
Description: as §3

Citrobacter freundii E-9 [11] = test: MIC, broth dilution method; type: cell-based; settings: for MIC: Citrobacter freundii, read-out: Minimum inhibitory concentration
Description: as §3

[12] = tested on: Diplococcus pneumoniae Type III; test: MIC, broth dilution method; type: cell-based; settings: Streptococcus pneumoniae, read-out: Minimum inhibitory concentration
Description: as §3

Serratia marcescens S-18 [13] = test: Potentiating and synergistic effect, pulp disc inhibition zone on agar plate; type: cell-based
Description: (§4) 10 ml of 2.5 folds diluted nutrient agar (pH 7.0) containing 50 μg/ml of penicillin G or cephaloridine was seeded with the β-lactamase producing and β-lactam-resistant microorganisms and poured in a 9 cm Petri dish to provide the bio-assay agar plate. On this assay plate, 8 mm of pulp discs each containing 20 μl of antibiotic PS-6 solution at the concentration of 240 μg/ml were placed and incubated at 35° C. for 18 hours before reading the inhibition zones. A control assay plate was similarly prepared without penicillin G or cephaloridine. As reference antibiotics, 10,000 μg/ml of penicillin G or 20 μl of cephaloridine were disc-assayed under the same conditions.

Citrobacter freundii E-9 [14] = test: as above; type: cell-based
Description: as §4

[15] = tested on: Staphylococcus aureus Rassell; test: MIC, broth dilution method; settings: 20 h, read-out: Minimum inhibitory concentration
[16] = tested on: Staphylococcus aureus Bx-1633; test: MIC, broth dilution method; settings: BX1633, 20 h, read-out: Minimum inhibitory concentration
[17] = tested on: Enterobacter aerogenes E-19; test: MIC, broth dilution method; settings: Klebsiella aerogenes, E19, 20 h, read-out: Minimum inhibitory concentration
Enterobacter sp. E-8 = test: MIC, broth dilution method; settings: SP.E8, 20 h, read-out: Minimum inhibitory concentration
[18] = tested on: Bacillus subtilis ATCC 6633; test: MIC, broth dilution method; settings: ATCC6633, 20 h, read-out: Minimum inhibitory concentration
Serratia marcescens S-18 [19] = test: MIC, broth dilution method; settings: S18, 20 h, read-out: Minimum inhibitory concentration
Proteus sp. P-22 = test: MIC, broth dilution method; settings: 20 h, read-out: Minimum inhibitory concentration
Proteus rettgeri P-7 = test: MIC, broth dilution method; settings: Providencia rettgeri, P7, 20 h, read-out: Minimum inhibitory concentration
Providencia sp. P-8 = test: MIC, broth dilution method; settings: SP.P8, 20 h, read-out: Minimum inhibitory concentration
Proteus mirabilis P-6 = test: MIC, broth dilution method; settings: P6, 20 h, read-out: Minimum inhibitory concentration
[20] = Table 9, lactamase producing organism
[21] = Table 6, agar containing 50 μg/ml of cephaloridine, disc 20 μl, PS-6 240 μg/ml, reference antibiotics 10,000 μg/ml
[22] = Table 6, agar containing 50 μg/ml of penicillin G, disc 20 μl, PS-6 240 μg/ml, reference antibiotics 10,000 μg/ml
[23] = Table 9, 10% of horse blood in the medium
[24] = E16, Table 7, no unit in the head, lactamase-producing strain
[25] = B326, Table 7, no unit in the head
[26] = E9, Table 7, no unit in the head, lactamase-producing strain

O=C(Cc1cccs1)N[C@@H]1C(=O)N2C(C(=O)[O-])=C(C[n+]3ccccc3)CS[C@H]12 [cephaloridine]
MIC [1]: 20 µg/mL (≈ 48.1 µM)
Minimum inhibitory concentration [1, 20]: 20.0 µg/mL (≈ 48.1 µM)
MIC ([2]; E16, 20 h): > 100 µg/mL
Minimum inhibitory concentration [2, 20]: > 100 µg/mL
MIC (Proteus vulgaris P-5 [3]): > 100 µg/mL
Minimum inhibitory concentration (Proteus vulgaris P-5 [3]; [20]): > 100 µg/mL
zone of inhibition at 10000 µg/mL (Proteus vulgaris P-5 [4]; Proteus vulgaris, P5, 18 h, read-out: Diameter of inhibitory zone, No addition): 12 mm
zone of inhibition at 240 µg/mL (Proteus vulgaris P-5 [4]; Proteus vulgaris, P5, 18 h, read-out: Inhibition zone, Control): 12 mm
Inhibition zone, with cephaloridine (Proteus vulgaris P-5 [4]; [21]): 12.0 mm
Inhibition zone, with penicillin G (Proteus vulgaris P-5 [4]; [22]): 12.0 mm
Diameter of inhibitory zone, Cephaloridine-added (Proteus vulgaris P-5 [4]; Table 8, comparison disc 20 μl of 10,000 μg/ml, cephaloridine in the agar): 12.0 mm
Minimum inhibitory concentration ([5]; Table 9, ester dissolved in methanol, final methanol not above 10%): 0.04 µg/mL (≈ 0.0963 µM)
MIC [6]: 0.01 µg/mL (≈ 0.0241 µM)
Minimum inhibitory concentration [6, 23]: 0.01 µg/mL (≈ 0.0241 µM)
Synergistic enhancement of the activity of penicillin G or cephaloridine (β-lactam antibiotics) [7]: no synergistic effect
Synergistic enhancement of the activity of penicillin G or cephaloridine (β-lactam antibiotics) ([7]; listed as Cephaloridine): No enhancement of antimicrobial activity
Minimum inhibitory concentration [8, 23]: 0.01 µg/mL (≈ 0.0241 µM)
MIC ([9]; 20 h): 0.04 µg/mL (≈ 0.0963 µM)
MIC ([10]; B326, 20 h): 3.13 µg/mL (≈ 7.53 µM)
Minimum inhibitory concentration ([10]; Table 9): 3.13 µg/mL (≈ 7.53 µM)
MIC (Citrobacter freundii E-9 [11]; E9, 20 h): > 100 µg/mL
Minimum inhibitory concentration (Citrobacter freundii E-9 [11]; [20]): > 100 µg/mL
MIC ([12]; 20 h): 0.01 µg/mL (≈ 0.0241 µM)
zone of inhibition at 240 µg/mL (Serratia marcescens S-18 [13]; Serratia marcescens, S18, 18 h, read-out: Inhibition zone, Control): 11 mm
Inhibition zone, with cephaloridine (Serratia marcescens S-18 [13]; [21]): 11.0 mm
Inhibition zone, with penicillin G (Serratia marcescens S-18 [13]; [22]): 11.0 mm
zone of inhibition at 240 µg/mL (Citrobacter freundii E-9 [14]; Citrobacter freundii, E9, 18 h, read-out: Inhibition zone, Control): 12 mm
Inhibition zone, with cephaloridine (Citrobacter freundii E-9 [14]; [21]): 12.0 mm
Inhibition zone, with penicillin G (Citrobacter freundii E-9 [14]; [22]): 12.0 mm

CO[C@@]1(NC(=O)Cc2cccs2)C(=O)N2C(C(=O)O)=C(COC(N)=O)CS[C@@H]21 [Cefoxitin]
MIC [15]: 5 µg/mL (≈ 11.7 µM)
MIC [1]: 6.25 µg/mL (≈ 14.6 µM)
MIC [16]: 2.5 µg/mL (≈ 5.85 µM)
MIC ([2]; E16, 20 h, Table 5, betalactamase producer): > 100 µg/mL
MIC [2, 24]: > 100 µg/mL
MIC [17]: > 100 µg/mL
MIC (Enterobacter sp. E-8): 12.5 µg/mL (≈ 29.2 µM)
MIC [18]: 1.25 µg/mL (≈ 2.92 µM)
MIC [5]: 2.5 µg/mL (≈ 5.85 µM)
MIC [6]: 1.25 µg/mL (≈ 2.92 µM)
MIC (Serratia marcescens S-18 [19]): 50 µg/mL (≈ 117 µM)
MIC ([8]; Streptococcus pneumoniae, Table 7, no unit in the head, horse serum in the medium at 10%, read-out: Minimum inhibitory concentration): 2.5 µg/mL (≈ 5.85 µM)
MIC ([9]; Table 5, 35° C. 20 hours): 2.5 µg/mL (≈ 5.85 µM)
MIC ([10]; B326, Table 5, 35° C. 20 hours): 1.56 µg/mL (≈ 3.65 µM)
MIC [10, 25]: 1.56 µg/mL (≈ 3.65 µM)
MIC (Citrobacter freundii E-9 [11]; E9, 20 h, Table 5, betalactamase producer): > 100 µg/mL
MIC (Citrobacter freundii E-9 [11]; [26]): > 100 µg/mL
MIC ([12]; 20 h, Table 5, 10% horse blood supplemented into the medium): 2.5 µg/mL (≈ 5.85 µM)

Cc1nnc(SCC2=C(C(=O)O)N3C(=O)[C@@H](NC(=O)Cn4cnnn4)[C@H]3SC2)s1 [Cefazorin]
MIC (Proteus sp. P-22): > 100 µg/mL
MIC [15]: 1 µg/mL (≈ 2.2 µM)
MIC [1]: 6.25 µg/mL (≈ 13.8 µM)
MIC (Proteus rettgeri P-7): 25 µg/mL (≈ 55 µM)
MIC [16]: 0.5 µg/mL (≈ 1.1 µM)
MIC (Providencia sp. P-8): 50 µg/mL (≈ 110 µM)
MIC [2, 24]: > 100 µg/mL
MIC [17]: > 100 µg/mL
MIC (Enterobacter sp. E-8): 3.13 µg/mL (≈ 6.89 µM)
MIC (Proteus vulgaris P-5 [3]): > 100 µg/mL
MIC [18]: 0.5 µg/mL (≈ 1.1 µM)
MIC [5]: 0.25 µg/mL (≈ 0.55 µM)
MIC [6]: 0.25 µg/mL (≈ 0.55 µM)
MIC (Serratia marcescens S-18 [19]): > 100 µg/mL
MIC (Proteus mirabilis P-6): 6.25 µg/mL (≈ 13.8 µM)
MIC ([9]; Table 5, 35° C. 20 hours): 0.25 µg/mL (≈ 0.55 µM)
MIC ([10]; B326, Table 5, 35° C. 20 hours): 6.25 µg/mL (≈ 13.8 µM)
MIC [10, 25]: 6.25 µg/mL (≈ 13.8 µM)
MIC (Citrobacter freundii E-9 [11]; E9, 20 h): > 100 µg/mL
MIC (Citrobacter freundii E-9 [11]; [26]): > 100 µg/mL
MIC ([12]; 20 h): 0.125 µg/mL (≈ 0.275 µM)
MIC [12]: 0.125 µg/mL (≈ 0.275 µM)
